For data set [1] the following is noted: intended doses; cited from earlier work.
In another data set the test system is female Wistar rats. As to the kind of experiment: Resident/intruder (R/I) test of estrus cycle-dependent tolerance/withdrawal symptoms. The data set is classed as in vivo, rat. The note with it: 1.5 mg/kg s.c. daily. The method, then:
Experimental set-up: Experiments were carried out in female cycling rats. Rats have steroid variations related to ovulation similar to humans. […] The symptoms are related to the excitability changes in the brain that precedes withdrawal symptoms. Symptoms like migraine attacks and epileptic seizure(s) will arrive after a period of tolerance (Reddy & Rogawski 2009; Slawecki et al 2000, Welch K M. 2005). Symptoms in rats were investigated using a resident/intruder (R/I) test with behavioral analysis at the diestrus and the estrus phases of the estrus cycle (FIG. 3). The symptoms referred to in this Example are behavioral symptoms of withdrawal.
The frequency of behavioral symptom expression at diestrus and estrus during treatment were compared to the same behavior expression prior to treatment. The intruder rats were ovariectomized animals of the same age and size as the residents.
Animals: In total, 42 female Wistar rats (Taconics, Lille Skensved, Denmark) were used. At arrival the animals were approximately 9 weeks old and weighed 185-209 g. For identification, the rats were marked on their tails with permanent ink (PorciMark™). The animals were housed in triads at the animal facility where all experiments took place (Umea University, Umea, Sweden). A reversed light/dark cycle was used (12 h/12 h light/dark; lights off at 04:00). Food (standard chow) and water was available ad libitum. The rats were handled daily for two weeks prior to the start of testing. Nine rats were randomly selected as intruder rats and were ovariectomized. The remaining intact rats were tested for estrus cycle-dependent symptomatic behavior. The study protocol was approved by the Regional Ethics Committee of Umea, Sweden. All animal handling and experiments were performed according to Swedish legislation.
Ovariectomy of the intruder rats: Ovariectomy of the intruder rats was carried out by ligation of uterine tubes and removal of ovaries under anesthesia with 2.3% Isoflurane (Baxter Medical AB, Kista, Sweden) in oxygen (O2 flow rate 0.32 L/min). The surgical suture techniques included the use of surgical glue (Vetbond Tissue Adhesive No 1469 3M) in addition to sutures. Pain relief (Rimadyl Vet, 0.25 mg/100 g) was given daily for one week post-surgery.
Determination of estrus cycle phase: Estrus cycle phase (proestrus, estrus, metestrus and diestrus) of the rats was determined by microscope examination of vaginal smears. The smears were collected daily between 08:00 and 10:00, using a glass pipette with 50-70 μL normal saline (NaCl 0.9%), and stained with 0.2% toluidine blue. However, on the day of R/I test, the vaginal smear of a tested animal was collected immediately after the encounter. In addition, during the 3beta-hydroxy-5alpha-pregnan-20-one treatment, the smears were collected directly in the morning before injections to confirm expected estrus cycle phase. Diestrus (including metestrus) is characterized by the presence of leucocytes in smears. Both nucleated epithelial cells and cornified epithelial cells are present at diestrus but more abundantly at metestrus than at late diestrus. Estrus (including proestrus) is characterized by thick smears free from leucocytes but with abundant presence of nucleated epithelial cells (predominant in proestrus) and cornified epithelial cell (predominant at estrus). Further details are provided in Hubscher et al., 2005. […]

In data set [2] the target is T1, human alpha1,beta2,gamma2 Long GABAA receptor subtype (Homo sapiens, UniProt P14867+P47870).
T1 construct: expressed in transfected cells; host or cells: HEK-293
T1 sequence (P14867 28-456): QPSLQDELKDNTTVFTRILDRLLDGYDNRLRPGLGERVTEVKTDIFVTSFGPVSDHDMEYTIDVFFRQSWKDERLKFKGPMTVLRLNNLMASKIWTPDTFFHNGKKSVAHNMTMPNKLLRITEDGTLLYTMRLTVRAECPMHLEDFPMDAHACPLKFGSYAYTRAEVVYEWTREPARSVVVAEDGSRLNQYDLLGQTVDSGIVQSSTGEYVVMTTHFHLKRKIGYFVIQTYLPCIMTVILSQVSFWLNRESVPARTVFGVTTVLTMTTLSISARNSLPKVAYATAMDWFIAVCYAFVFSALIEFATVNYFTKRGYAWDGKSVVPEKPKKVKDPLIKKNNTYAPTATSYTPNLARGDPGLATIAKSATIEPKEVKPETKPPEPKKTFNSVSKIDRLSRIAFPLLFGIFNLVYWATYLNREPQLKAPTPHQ
T1 sequence (P47870 25-512 limits assumed): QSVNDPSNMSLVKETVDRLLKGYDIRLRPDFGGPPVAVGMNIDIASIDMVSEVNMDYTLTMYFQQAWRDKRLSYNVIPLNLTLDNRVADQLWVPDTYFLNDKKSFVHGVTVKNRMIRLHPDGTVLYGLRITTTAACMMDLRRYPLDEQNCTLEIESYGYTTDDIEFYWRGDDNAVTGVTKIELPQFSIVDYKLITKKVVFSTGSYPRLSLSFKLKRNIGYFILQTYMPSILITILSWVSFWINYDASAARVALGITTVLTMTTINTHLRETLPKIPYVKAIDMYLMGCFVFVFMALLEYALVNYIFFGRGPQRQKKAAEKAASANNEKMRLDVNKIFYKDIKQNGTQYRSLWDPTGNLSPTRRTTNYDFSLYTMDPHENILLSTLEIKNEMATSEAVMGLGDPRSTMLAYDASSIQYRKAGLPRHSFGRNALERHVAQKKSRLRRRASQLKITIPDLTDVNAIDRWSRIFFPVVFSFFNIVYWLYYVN
T1 sequence (P18507 40-475 partner): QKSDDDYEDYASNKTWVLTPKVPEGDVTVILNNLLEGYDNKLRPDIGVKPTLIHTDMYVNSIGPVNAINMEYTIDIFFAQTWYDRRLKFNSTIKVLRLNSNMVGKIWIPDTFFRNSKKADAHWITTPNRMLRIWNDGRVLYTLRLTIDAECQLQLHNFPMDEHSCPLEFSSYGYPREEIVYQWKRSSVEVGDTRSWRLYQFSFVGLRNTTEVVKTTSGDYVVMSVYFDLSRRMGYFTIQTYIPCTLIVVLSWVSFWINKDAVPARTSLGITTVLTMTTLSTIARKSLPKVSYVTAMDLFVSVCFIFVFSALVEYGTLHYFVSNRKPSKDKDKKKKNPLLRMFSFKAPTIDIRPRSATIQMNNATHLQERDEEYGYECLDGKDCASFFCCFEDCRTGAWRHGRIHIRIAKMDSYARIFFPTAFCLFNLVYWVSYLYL
Briefly: Patch-clamp (Dynaflow system) current response in HEK-293 cells transfected with alpha1,beta2,gamma2 Long GABAA receptor. The data set is classed as cell-based. The method, then:
(§1) In these tests the protocol was optimized to be similar to the physiological conditions in the synaptic cleft.
(§2) Cell culture: HEK-293 cells, permanently transfected with the human alpha1,beta,gamma and alpha4,beta,delta GABAA receptor subtypes, were seeded at a density of 3×10^4/25 cm^2 in a culture flask. The transfected cells were used for patch-clamp experiments 3 days after seeding. When using the cells for patch-clamp experiments the cells were washed twice with oxygen-bubbled extra cellular (EC) solution (see below). About 5 mL EC was then added and the cells were kept in the incubator for about 15 minutes. After 15 minutes the cells came loose from the bottom of the flask and were separated by carefully sucking a couple of times with a Pasteur pipette.
(§3) Dynaflow™ system with Resolve chip was used for patch-clamp experiments: The electrophysiological recordings from HEK-293 cells were performed under voltage-clamp conditions using patch-clamp technique and the Dynaflow™ system (Dynaflow Pro II Platform Zeiss Axiovert 25; Cellectricon AB, Sweden) with Resolve chips as application system.
(§4) Patch pipettes were pulled from borosilicate glass and polished to a resistance 2-5 MΩ when filled with suitable intracellular solution (IC) (pH was adjusted to 7.2) and immersed in bath solution (extracellular, EC) (pH is adjusted to 7.4).
(§5) The recordings were made using an Axopatch 200B amplifier, a Digidata 1322A (Axon instruments, Foster city, USA). Data were analysed using the pCLAMP software sampled at 10 kHz, filtered at 2-10 kHz and analyzed with Clampfit (versions 9.0, both from Axon instruments, Foster city, USA). No higher series resistance than 20 MΩ between pipette and cell membrane was accepted. No series resistance compensation was used. The stability of series resistance was monitored repeatedly from the time course of capacitative transients during the experiments. The measured liquid-junction potential between EC and IC was subtracted in all data presented. All experiments were performed at room temperature (21-23° C.).
(§6) All steroids were dissolved to the concentration of 6 mM in DMSO. […] End solutions were the solutions added into the wells of the chip.
(§7) Electrophysiology: After compensating for the liquid junction potential a steady holding potential of −17 mV was used in all experiments. […] By using the holding potential of −17 mV and the intracellular solution with low chloride ion concentration the chloride ions flux into the cell when the receptors were activated.
The Dynaflow system allowed application of solutions for as short as 40 ms up to minutes in time.
In the experiments, THDOC and 3alpha-OH-adiol were used as the positive GABAA receptor modulating steroids.
(§8) Different incubation times were studied to achieve the optimal time for attaining stable results and minimize the washout time.
Study design: Studies were conducted on current response mediated by chloride ion flux through the GABAA receptor. […] The same patch-clamp technique was used as described above (Example 1) using the Dynaflow™ application system. THDOC was used as positive GABAA receptor modulating steroid as it has shorter washout time compared to allopregnanolone but works with the same mechanisms on the same GABAA receptor binding site as allopregnanolone.
HEK-293 cells, permanently transfected with cDNA expressing the human alpha1,beta2,gamma2 Long GABAA receptor subtype. The tissue culture and the handling of the cells were as described in Example 1. In the patch-clamp experiments the transfected cells were used minimum two passages after defrosting and 3 days after seeding. The cells were seeded for maximal 25 times.

Data set [3] concerns the target T2, human alpha4,beta,delta GABAA receptor subtype (Homo sapiens, UniProt P28472+P48169).
T2 construct: expressed in transfected cells; host or cells: HEK-293
Briefly: Patch-clamp (Dynaflow system) current response in HEK-293 cells transfected with alpha4,beta3,delta GABAA receptor. The class given is cell-based. The procedure:
as §1, §2, §3, §4, §5, §6, §7
The Dynaflow system allowed application of solutions for as short as 40 ms up to minutes in time. […] There was no difference in response between the second and the third GABA application. Therefore, the first GABA application was always repeated twice and the second response was used in the analysis.
Washout: GABA is quite soluble in water and easy to washout from the receptor. […] Steroids on the other hand were difficult to dissolve in water and also difficult to washout from the receptor. In the experiments, THDOC and 3alpha-OH-adiol were used as the positive GABAA receptor modulating steroids. With 2 minutes washout time, 200 nM THDOC and 3alpha-OH-adiol was completely washed out as shown by neither an accumulative nor a desensitization effect.
as §8

T2 sequence (P48169 36-554): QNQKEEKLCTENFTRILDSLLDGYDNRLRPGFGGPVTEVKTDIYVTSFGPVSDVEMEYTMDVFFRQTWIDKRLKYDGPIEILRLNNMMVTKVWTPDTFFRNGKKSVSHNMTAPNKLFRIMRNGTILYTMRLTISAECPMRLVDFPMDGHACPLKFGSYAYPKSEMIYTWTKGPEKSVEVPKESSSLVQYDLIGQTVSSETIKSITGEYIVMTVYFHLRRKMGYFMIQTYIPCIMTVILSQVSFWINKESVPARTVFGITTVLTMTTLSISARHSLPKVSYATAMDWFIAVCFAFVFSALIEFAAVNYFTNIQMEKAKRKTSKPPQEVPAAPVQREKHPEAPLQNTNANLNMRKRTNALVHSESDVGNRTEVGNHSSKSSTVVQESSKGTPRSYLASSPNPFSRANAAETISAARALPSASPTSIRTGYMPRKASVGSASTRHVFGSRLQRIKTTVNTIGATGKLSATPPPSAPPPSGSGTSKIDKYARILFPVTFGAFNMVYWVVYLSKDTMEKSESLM
T2 sequence (P28472 26-473): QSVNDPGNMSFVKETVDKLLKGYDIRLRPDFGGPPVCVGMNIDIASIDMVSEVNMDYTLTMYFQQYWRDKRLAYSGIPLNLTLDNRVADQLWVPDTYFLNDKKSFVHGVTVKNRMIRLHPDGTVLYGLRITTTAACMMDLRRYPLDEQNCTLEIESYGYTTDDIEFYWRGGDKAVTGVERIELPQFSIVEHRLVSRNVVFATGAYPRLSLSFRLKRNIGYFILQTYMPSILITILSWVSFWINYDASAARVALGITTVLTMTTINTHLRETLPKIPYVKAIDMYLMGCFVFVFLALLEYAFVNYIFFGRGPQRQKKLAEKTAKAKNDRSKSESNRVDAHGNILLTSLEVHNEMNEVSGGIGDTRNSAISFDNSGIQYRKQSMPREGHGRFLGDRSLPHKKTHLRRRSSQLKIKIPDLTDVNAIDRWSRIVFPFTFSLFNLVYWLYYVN
T2 sequence (O14764 17-452 partner limits assumed): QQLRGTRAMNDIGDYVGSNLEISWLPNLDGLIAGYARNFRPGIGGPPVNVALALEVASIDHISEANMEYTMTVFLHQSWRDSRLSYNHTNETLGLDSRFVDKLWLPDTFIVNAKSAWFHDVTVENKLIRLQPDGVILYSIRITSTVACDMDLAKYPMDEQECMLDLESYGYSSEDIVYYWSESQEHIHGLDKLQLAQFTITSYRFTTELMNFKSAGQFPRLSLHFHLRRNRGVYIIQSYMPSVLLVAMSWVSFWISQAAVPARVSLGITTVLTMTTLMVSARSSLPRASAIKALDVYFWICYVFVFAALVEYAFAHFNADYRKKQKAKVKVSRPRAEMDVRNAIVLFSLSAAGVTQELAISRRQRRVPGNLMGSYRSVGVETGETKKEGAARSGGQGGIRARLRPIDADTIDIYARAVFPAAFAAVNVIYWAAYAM

With `CC(=O)[C@H]1CC[C@H]2[C@@H]3CC[C@H]4C[C@@H](O)CC[C@]4(C)[C@H]3CC[C@]12C` [UC1010, 3beta-hydroxy-5alpha-pregnan-20-one], the “Safety in clinical studies” value in data set [1] is listed as “shown safe”. Moreover, in the data set on female Wistar rats (14 rats with symptoms), the “Symptoms at diestrus during treatment in comparison to mean diestrus without treatment” value is “significantly decreased”. Moreover, in the data set with female Wistar rats (baseline diestrus set to 100%, baseline estrus set to 0%, n=14), the “Relative effect of treatment on symptomatic behavior at diestrus” value is reported as −89%. Further, the “Estrus cycle duration or vaginal smear appearance during treatment” value with female Wistar rats (data not shown) was “did not change”. Besides, the “Symptomatic behaviors at both diestrus phases when treated compared to diestrus at baseline” value in the data set on female Wistar rats (nine rats with symptoms in both cycles) is reported as “less frequent”. Moreover, the “Effect size, Cohen's d” value with female Wistar rats (symptoms at diestrus) is 1.67. The “Imax/Emax Mean ± SEM %, antagonism of THDOC enhanced effect” value in data set [2] (1 μM UC1010 + 30 μM GABA + 200 nM THDOC) is −22.3±5.3%. Moreover, the “Imax/Emax Mean ± SEM %, effect on GABA response” value in data set [2] (1 μM UC1010 + 30 μM GABA, compared to GABA alone) was “+10.3 ± 7.8%”. In data set [2] (HEK293, 0.1-1 μM UC1010 + 30 μM GABA + 200 nM THDOC, concentration-dependent experiment, read-out: Imax/Emax, max antagonism of THDOC effect), the Emax was -21 ± 4.6%. For the same compound, the Emax at 1 µM in data set [2] (HEK293, read-out: Imax/Emax Mean ± SEM %, effect on GABA response, 1 μM UC1010 + 30 μM GABA, compared to GABA alone) is 10.3%. For the same compound, in data set [2] (steady state (phasic effect)), the “The effect of 1 μM UC1010 on 8 μM Androstanediol + 30 μM GABA, Mean ± SEM %” value is listed as −30 ± 1.7%. In data set [2] (tonic effect), the “The effect of 1 μM UC1010 on 8 μM Androstanediol, baseline shift, Mean ± SEM %” value is on record as −33 ± 7.6%. Moreover, in data set [3], the “The effect of 1 μM UC1010 on 0.6 μM Androstanediol + 3 μM GABA, Mean ± SEM %” value was −18 ± 2.0% and the “The effect of 1 μM UC1010 on 0.8 μM Androstanediol + 3 μM GABA, Mean ± SEM %” value is reported as −22 ± 2.6%. For the same compound, the “Current response of compound by itself” value in data set [3] (1 μM, no GABA, no THDOC) is listed as −0.4±0.3 pA. In addition, the “The effect of 1 μM UC1010 on 0.1 μM THDOC alone baseline, Mean ± SEM %” value in data set [3] (baseline shift without GABA) is reported as −43 ± 3.5%. Moreover, the “The effect of 1 μM UC1010 on 3 μM GABA response, Mean ± SEM %” value in data set [3] (control, GABA alone) was −6.7 ± 3.3%. In data set [3] (steady state), the “The effect of 1 μM UC1010 on 0.1 μM THDOC + 3 μM GABA, Mean ± SEM %” value is −26 ± 2.4%.
